Experimental data: US7638535B2, “4-(aminomethyl)-piperidine benzamides as 5HT4-antagonists” (Janssen Pharmaceutica N.V., priority 2003, dated 2009)

biological target: T1, h5-HT4b (Homo sapiens, UniProt Q13639); test: 5HT4 antagonism: [3H]GR113808 binding to membranes of h5-HT4b-HEK 293 clone 9 cells; conditions: displacement of [3H]GR113808 0.1 nM, h5-HT4b-HEK 293 membranes, 30 min at 25° C.; read-out: pIC50 (5HT4 antagonistic data) (converted)
T1 construct: expressed in transfected cells; host or cells: HEK 293 (clone 9), membrane preparation
T1 sequence (Q13639 whole entry): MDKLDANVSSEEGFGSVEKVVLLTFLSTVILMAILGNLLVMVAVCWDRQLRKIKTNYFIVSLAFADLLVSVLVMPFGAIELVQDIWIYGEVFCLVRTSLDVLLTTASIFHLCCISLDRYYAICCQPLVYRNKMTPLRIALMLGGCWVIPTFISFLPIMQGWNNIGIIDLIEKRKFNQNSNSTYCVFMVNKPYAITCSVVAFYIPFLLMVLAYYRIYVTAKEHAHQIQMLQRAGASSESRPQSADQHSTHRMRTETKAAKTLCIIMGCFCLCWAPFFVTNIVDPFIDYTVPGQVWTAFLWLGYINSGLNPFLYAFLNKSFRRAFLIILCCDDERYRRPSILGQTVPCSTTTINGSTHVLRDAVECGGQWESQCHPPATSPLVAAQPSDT
Experimental: h5-HT4b-HEK 293 clone 9 cells were cultured in 150 mm Petri dishes and washed twice with cold PBS. The cells were then scraped from the plates and suspended in 50 mM Tris-HCl buffer, pH 7.4 and harvested by centrifugation at 23,500 rpm for 10 minutes. The pellet was resuspended in 5 mM Tris-HCl, pH 7.4 and homogenized with an Ultra Turrax homogenizer. The membranes were collected by centrifugation at 30,000 rpm for 20 min, resuspended in 50 mM Tris-HCl pH 7.4 and stored at −80° C. For the experiment, assay mixtures (0.5 ml) contained 50 μl of the tritiated ligand (5-HT4 antagonist [^3H]GR113808 0.1 nM) and 0.4 ml membrane preparation (15 μg protein/ml). 50 μl of 10% DMSO was added for total binding. 50 μl of 1 μM of (+)-trans-(1-butyl-3-hydroxy-4-piperidinyl)methyl 8-amino-7-chloro-2,3-dihydro-1,4-benzodioxin-5-carboxylate (a proprietary 5HT4 agonist of Janssen Pharmaceutica) was added for determination of non-specific binding.
The [^3H]GR113808 assay buffer was 50 mM HEPES-NaOH, pH 7.4. The mixtures were incubated for 30 min at 25° C. The incubation was terminated by filtration over a Unifilter 96 GF/B presoaked in 0.1% polyethylenimine, followed by six washing steps with 50 mM HEPES-NaOH, pH 7.4.

IC50	Structure (SMILES)
5.01 nM	CO[C@@H]1CN(CCCC#N)CC[C@H]1CNC(=O)c1cc(C)cc2c1OCCCO2 [compound 215]
44.7 nM	CNCCCCN1CC[C@@H](CNC(=O)c2cc(CC#N)cc3c2OCCCO3)[C@H](O)C1 [compound 216]
1.48 nM	Cc1cc2c(c(C(=O)NC[C@@H]3CCN(CCCCC(N)=O)C[C@H]3O)c1)OCCCO2 [compound 217]
0.776 nM	Cc1cc2c(c(C(=O)NC[C@@H]3CCN(CC4CC4)C[C@H]3O)c1)OCCCO2 [compound 218]
1.86 nM	CC(C)OCCCN1CC[C@H](CNC(=O)c2cc(C#N)cc3c2OCCCO3)[C@@H](O)C1 [compound 219]
2.51 nM	CC1(CCCN2CC[C@H](CNC(=O)c3cc(C#N)cc4c3OCCCO4)[C@@H](O)C2)OCCO1 [compound 220]
3.09 nM	CO[C@@H]1CN(CCCNS(C)(=O)=O)CC[C@H]1CNC(=O)c1cc(C)cc2c1OCCCO2 [compound 221]
1.32 nM	CCCCN1CC[C@@H](CNC(=O)c2cc(C)cc3c2OCCCO3)[C@H](OC)C1 [compound 222]
3.72 nM	CC(=O)CCCN1CC[C@@H](CNC(=O)c2cc(C#N)cc3c2OCCCO3)[C@H](O)C1 [compound 223]
1.78 nM	Cc1cc2c(c(C(=O)NC[C@@H]3CCN(CCCC(=O)N4CCCC4)C[C@H]3O)c1)OCCCO2 [compound 224]
0.501 nM	Cc1cc2c(c(C(=O)NC[C@@H]3CCN(CCCCNc4ncccn4)C[C@H]3O)c1)OCCCO2 [compound 230]
0.776 nM	Cc1cc2c(c(C(=O)NC[C@@H]3CCN(CCCCNc4nccnc4C)C[C@H]3O)c1)OCCCO2 [compound 231]
0.398 nM	Cc1cc2c(c(C(=O)NC[C@@H]3CCN(CCCc4ccncc4)C[C@H]3O)c1)OCCCO2 [compound 232]
0.355 nM	Cc1cc2c(c(C(=O)NC[C@@H]3CCN(CCCc4ccc(O)cc4)C[C@H]3O)c1)OCCCO2 [compound 233]
0.49 nM	COCCCCN1CC[C@@H](CNC(=O)c2cc(C)cc3c2OCCCO3)[C@H](O)C1 [compound 234]
37.2 nM	COCCCN1CC[C@@H](CNC(=O)c2cc(C#N)cc3c2OCCCO3)[C@H](OC)C1 [compound 235]
47.9 nM	CO[C@@H]1CN(CCCNS(C)(=O)=O)CC[C@H]1CNC(=O)c1cc(C#N)cc2c1OCCCO2 [compound 236]
1.45 nM	Cc1cc2c(c(C(=O)NC[C@@H]3CCN(CCCS(C)(=O)=O)C[C@H]3O)c1)OCCO2 [compound 237]
19.1 nM	COCCCCN1CCC(O)(CNC(=O)c2cc(C)cc3c2OCCCO3)CC1 [compound 239]
45.7 nM	Cc1cc2c(c(C(=O)NCC3(O)CCN(CCCC#N)CC3)c1)OCCCO2 [compound 240]
19.5 nM	Cc1cc2c(c(C(=O)NC[C@H]3CCN(CCCC#N)C[C@H]3O)c1)OCCCO2 [compound 241]
0.794 nM	CCCCN1CC[C@H](CNC(=O)c2cc(C)cc3c2OCCCO3)[C@H](O)C1 [compound 242]
9.33 nM	COCCCCN1CC[C@H](CNC(=O)c2cc(C)cc3c2OCCCO3)[C@H](O)C1 [compound 243]
2.14 nM	CCCCN1CCC(O)(CNC(=O)c2cc(C)cc3c2OCCCO3)CC1 [compound 245]
0.224 nM	COCCCCN1CC[C@@H](CNC(=O)c2cc(C)cc3c2OCCO3)[C@H](O)C1 [compound 248]
37.2 nM	Cc1cc2c(c(C(=O)NC[C@H]3CCN(CCCC(N)=O)C[C@H]3O)c1)OCCCO2 [compound 249]
0.759 nM	Cc1cc2c(c(C(=O)NC[C@@H]3CCN(CCCOC(=O)N4CCCC4)C[C@H]3O)c1)OCCCO2 [compound 250]
30.9 nM	COCCCN1CC[C@H](CNC(=O)c2cc(C)cc3c2OCCCO3)[C@@H](O)C1 [compound 251]
4.27 nM	N#Cc1cc2c(c(C(=O)NC[C@@H]3CCN(CCCC(N)=O)C[C@H]3O)c1)OCCCO2 [compound 252]
31.6 nM	Cc1cc2c(c(C(=O)NCC3(O)CCN(CCCC(N)=O)CC3)c1)OCCCO2 [compound 253]

Second part, the molecule before the results:

Structure (SMILES)	IC50
CCCCN1CC[C@@H](CNC(=O)c2cc(C)cc3c2OCCCO3)[C@H](O)C1 [compound 164]	1 nM
Cc1cc2c(c(C(=O)NC[C@@H]3CCN(CCCC#N)C[C@H]3O)c1)OCCCO2 [compound 166]	4.27 nM
CC(C)Nc1cc2c(c(C(=O)NC[C@@H]3CCNC[C@H]3O)c1)OCCCO2 [compound 167]	2400 nM
CC(C)Nc1cc2c(c(C(=O)NC[C@@H]3CCN(CCC4OCCO4)C[C@H]3O)c1)OCCCO2 [compound 169]	32.4 nM
N#Cc1cc2c(c(C(=O)NC[C@@H]3CCN(CCC4OCCO4)C[C@H]3O)c1)OCCCO2 [compound 170]	16.2 nM
CNCCCCN1CC[C@@H](CNC(=O)c2cc(C#N)cc3c2OCCCO3)[C@H](O)C1 [compound 171]	1.62 nM
CC(C)Nc1cc2c(c(C(=O)NC[C@@H]3CCN(CCCC#N)C[C@H]3O)c1)OCCCO2 [compound 172]	107 nM
CNCCCCN1CC[C@@H](CNC(=O)c2cc(C)cc3c2OCCCO3)[C@H](O)C1 [compound 173]	3.02 nM
CCCCN1CC[C@@H](CNC(=O)c2cc(NC(C)C)cc3c2OCCCO3)[C@H](O)C1 [compound 174]	117 nM
N#Cc1cc2c(c(C(=O)NC[C@@H]3CCNC[C@H]3O)c1)OCCCO2 [compound 175]	123 nM
CCNc1cc2c(c(C(=O)NC[C@@H]3CCN(CCC4OCCO4)C[C@H]3O)c1)OCCCO2 [compound 176]	16.2 nM
CCNc1cc2c(c(C(=O)NC[C@@H]3CCNC[C@H]3O)c1)OCCCO2 [compound 178]	1410 nM
COCCCN1CC[C@@H](CNC(=O)c2cc(NC(C)C)cc3c2OCCCO3)[C@H](O)C1 [compound 179]	63.1 nM
CC(C)Nc1cc2c(c(C(=O)NC[C@@H]3CCN(CCCO)C[C@H]3O)c1)OCCCO2 [compound 180]	43.7 nM
CCCCN1CC[C@@H](CNC(=O)c2cc(N)c(Br)c3c2OCCCO3)[C@H](O)C1 [compound 181]	8.51 nM
CCNc1cc2c(c(C(=O)NC[C@@H]3CCN(CCCC#N)C[C@H]3O)c1)OCCCO2 [compound 182]	100 nM
Nc1cc(C(=O)NC[C@@H]2CCNC[C@H]2O)c2c(c1Cl)OCCCO2 [compound 188]	832 nM
Cc1cc2c(c(C(=O)NC[C@@H]3CCN(CCCNS(C)(=O)=O)C[C@H]3O)c1)OCCCO2 [compound 189]	1.86 nM
COCc1cc2c(c(C(=O)NC[C@@H]3CCNC[C@H]3O)c1)OCCCO2 [compound 190]	269 nM

Structure (SMILES)	IC50
Cc1cc2c(c(C(=O)NC[C@@H]3CCN(CCCC(=O)O)C[C@H]3O)c1)OCCCO2 [compound 192]	30.9 nM
Cc1cc2c(c(C(=O)NC[C@@H]3CCN(CCCCOc4ccc(S(N)(=O)=O)cc4)C[C@H]3O)c1)OCCCO2 [compound 194]	0.589 nM
CCCCN1CC[C@@H](CNC(=O)c2cc(OC)cc3c2OCCCO3)[C@H](O)C1 [compound 195]	3.63 nM
Cc1cc2c(c(C(=O)NC[C@@H]3CCN(CCCOc4ccc(S(N)(=O)=O)cc4)C[C@H]3O)c1)OCCCO2 [compound 196]	0.427 nM
Cc1cc2c(c(C(=O)NC[C@@H]3CCN(CCOc4ccc(S(N)(=O)=O)cc4)C[C@H]3O)c1)OCCCO2 [compound 198]	1.2 nM
CNCCCCN1CC[C@@H](CNC(=O)c2cc(OC)cc3c2OCCCO3)[C@H](O)C1 [compound 199]	12.3 nM
Cc1cc2c(c(C(=O)NC[C@@H]3CCN(CCC#N)C[C@H]3O)c1)OCCCO2 [compound 201]	14.5 nM
CO[C@@H]1CNCC[C@H]1CNC(=O)c1cc(C#N)cc2c1OCCCO2 [compound 203]	1350 nM
CO[C@@H]1CNCC[C@H]1CNC(=O)c1cc(C)cc2c1OCCCO2 [compound 204]	83.2 nM
Cc1cc2c(c(C(=O)NC[C@@H]3CCN(CCCS(C)(=O)=O)C[C@H]3O)c1)OCCCO2 [compound 205]	2.75 nM
COCCCN1CC[C@@H](CNC(=O)c2cc(C)cc3c2OCCCO3)[C@H](OC)C1 [compound 206]	3.16 nM
CO[C@@H]1CN(CCCO)CC[C@H]1CNC(=O)c1cc(C#N)cc2c1OCCCO2 [compound 207]	37.2 nM
CO[C@@H]1CN(CCCC#N)CC[C@H]1CNC(=O)c1cc(C#N)cc2c1OCCCO2 [compound 208]	5.62 nM
CCCCN1CC[C@@H](CNC(=O)c2cc(C#N)cc3c2OCCCO3)[C@H](OC)C1 [compound 209]	17.8 nM
CO[C@@H]1CN(CCCO)CC[C@H]1CNC(=O)c1cc(C)cc2c1OCCCO2 [compound 210]	5.25 nM
Cc1cc2c(c(C(=O)NC[C@@H]3CCN(CCCOC(C)C)C[C@H]3O)c1)OCCCO2 [compound 212]	0.813 nM
Cc1cc2c(c(C(=O)NC[C@@H]3CCN(CCCCCC(N)=O)C[C@H]3O)c1)OCCCO2 [compound 213]	2.63 nM
Cc1cc2c(c(C(=O)NC[C@@H]3CCN(CCC(N)=O)C[C@H]3O)c1)OCCCO2 [compound 214]	2.34 nM
